In publication PMC5399312 (Journal of Experimental & Clinical Cancer Research : CR, 2017):

Tests used:
SW480 cells = assay: Soft agar colony formation assay; type: cell-based, human; conditions: 100 μM
Method: About 0.6% agar was poured into the six-well plate. […] Media was changed every three days, and colonies were further observed for 10 days. Colonies were then stained with 0.01% of crystal violet staining solution for 2 h.

p-AMPKα in SW480 cells = assay: Western blot analysis; type: cell-based, human; conditions: 75, 150 and 300 μM
Method: The harvested cells were lysed with radioimmunoprecipitation assay (RIPA) buffer (Beyotime, China). Insoluble debris was removed by centrifugation and the concentration of total proteins was determined using BCA Protein Assay Kit (Beyotime, China). Then lysate protein (20-40 μg) was subjected to 10% SDS-PAGE and electrophoretically transferred to polyvinylidene difluoride membranes (PVDF) (Millipore, USA). […] Protein bands were visualized using an enhanced chemiluminescence reagent (ECL Plus) (GE Healthcare, USA) after hybridization with a HRP conjugated secondary antibody. All experiments were performed in triplicate and analyzed by optical density.

[1] = Detection of free Benz in tumor tissue (HPLC); type: in vivo, mouse; conditions: 600 mg/Kg Benz-treated group
Method: After recording the weights of tumor mass, tumor tissues from 600 mg/Kg Benz-treated group and 200 mg/Kg liposomal Benz-treated group were lightly washed and blotted to remove any excess blood. Then tumor tissues were homogenized and extracted with methanol, and 100 μL of the extracts were then subjected to HPLC assay. HPLC analysis was conducted by using a reverse phase column (Restek C18 5 μm, 250 mm × 4.6 mm) with a mobile phase of methanol-water- trifluoroacetic acid (20: 1000: 1).

[2] = system: SW480 xenograft tumor tissues; assay: TUNEL and H&E staining assay; type: in vivo; conditions: versus vehicle control
Method: Apoptosis of tumor tissues was detected by terminal deoxynucleotidyl transferase (TdT)-mediated dUTP-biotin nick end labeling (TUNEL) stain, using an In Situ Cell Death Detection Kit (Roche, Switzerland). The hematoxylin-eosin (H&E) staining was performed to observe the pathological changes in different groups.

G6P-DH = target: T1, G6P-DH (Leuconostoc mesenteroides, UniProt P11411); assay: Interference with coupling enzyme; type: biochemical
T1 construct: purchased Roche (Switzerland)
T1 sequence (P11411 1-486): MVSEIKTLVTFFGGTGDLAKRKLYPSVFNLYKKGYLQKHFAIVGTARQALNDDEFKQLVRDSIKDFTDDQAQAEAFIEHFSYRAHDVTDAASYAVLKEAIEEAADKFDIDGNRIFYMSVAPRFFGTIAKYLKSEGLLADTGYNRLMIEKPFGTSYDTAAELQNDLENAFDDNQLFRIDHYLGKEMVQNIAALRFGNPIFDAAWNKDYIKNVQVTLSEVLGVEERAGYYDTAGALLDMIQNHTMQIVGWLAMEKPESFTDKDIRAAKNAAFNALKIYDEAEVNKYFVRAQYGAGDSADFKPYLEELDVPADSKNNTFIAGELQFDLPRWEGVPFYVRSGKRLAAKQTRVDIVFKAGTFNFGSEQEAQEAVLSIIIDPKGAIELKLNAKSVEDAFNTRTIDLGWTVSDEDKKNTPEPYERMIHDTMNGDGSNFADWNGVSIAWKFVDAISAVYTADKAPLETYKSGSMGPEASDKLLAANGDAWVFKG
Method: Then 85 μL assay mix containing 100 mM Tris HCl pH 8.0, 5 mM MgCl2, 200 mM Glucose, 0.8 mM ATP, 1 mM NAD^+, 0.25 Units of G6P-DH, was added.

**Q.** Which results are given for `NC(CO)C(=O)NNCc1ccc(O)c(O)c1O` (centres unmarked) [Benz, Benserazide]?
**A.** anchorage-independent growth (colony formation) (SW480 cells): dramatically reduced the ability to form colonies; phosphorylation of AMPKα (p-AMPKα in SW480 cells): increased; average concentration of free Benz in tumor tissue [1]: 5.59 µg/mg; tumor apoptosis and pathological changes (TUNEL, H&E) [2]: induced tumor apoptosis and pathological changes; interference with G6P-DH activity (G6P-DH): No Benz interference
